Where two headings read alike, the source gives them in different places.
Columns and labels:
[1] = Microsomal stability, human liver microsomes (predicted hepatic clearance); conditions: predicted from in vitro microsomal stability data
GLP-1R = GLP-1R (Homo sapiens, UniProt P43220); experiment: GLP-1R activation: cAMP increase in CHO cells stably expressing GLP-1R; type: cell-based; conditions: read-out: EC50
[2] = cAMP increase, CHO cells stably expressing GLP-1R, 10 point dose response, 30 minutes incubation

Chain of GLP-1R (P43220 24-463): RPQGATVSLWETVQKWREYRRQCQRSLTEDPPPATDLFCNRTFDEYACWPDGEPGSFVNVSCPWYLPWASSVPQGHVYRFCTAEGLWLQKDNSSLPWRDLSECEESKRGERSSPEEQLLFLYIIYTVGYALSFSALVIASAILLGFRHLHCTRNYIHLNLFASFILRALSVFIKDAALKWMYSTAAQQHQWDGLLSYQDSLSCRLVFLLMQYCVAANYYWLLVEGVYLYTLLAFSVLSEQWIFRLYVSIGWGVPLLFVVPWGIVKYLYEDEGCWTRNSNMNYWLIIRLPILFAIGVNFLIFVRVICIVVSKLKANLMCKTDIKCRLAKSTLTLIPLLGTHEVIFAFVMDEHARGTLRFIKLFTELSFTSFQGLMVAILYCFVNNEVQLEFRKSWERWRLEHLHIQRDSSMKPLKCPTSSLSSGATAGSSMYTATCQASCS

| SMILES | Predicted Hepatic Clearance (Pred. Cl.) [1] [L/h/kg] | EC50 (GLP-1R; [2]) [nM] | EC50 (GLP-1R) [nM] |
| --- | --- | --- | --- |
| CN1CCO[C@@H](Cn2c(Cc3cc(F)c(-c4cccc(OCc5ccc(C#N)cc5F)n4)cc3F)nc3ccc(C(=O)O)cc32)C1 [Example 651] | 0.20 | 2790 | – |
| COCC1(Cn2c(Cc3cc(F)c(-c4cccc(OCc5ccc(C#N)cc5F)n4)cc3F)nc3ccc(C(=O)O)cc32)CCCO1 (stereo not drawn) [Example 652] | 0.48 | 8.79 | – |
| N#Cc1ccc(COc2cccc(-c3cc(F)c(Cc4nc5ccc(C(=O)O)cc5n4CC4CC5(COC5)C4)cc3F)n2)c(F)c1 [Example 653] | 0.16 | 17 | – |
| COCCn1c(Cc2c(F)cc(-c3cccc(OCc4ccc(Cl)nc4)n3)cc2F)nc2ccc(C(=O)O)cc21 [Example 654] | 0.21 | 24.9 | – |
| O=C(O)c1ccc2nc(Cc3ccc(-c4cccc(OCc5ccc(C(F)(F)F)nc5)n4)c(F)c3)n(C[C@@H]3CCO3)c2c1 [Example 655] | 0.32 | 1.26 | – |
| N#Cc1ccc(COc2cccc(-c3ccc(Cc4nc5ccc(C(=O)O)cc5n4C[C@@H]4CCO4)cc3F)n2)cn1 [Example 656] | 0.28 | 1.52 | – |
| COCCn1c(Cc2cc(F)c(-c3cccc(OCc4ccc(C#N)nc4)n3)cc2F)nc2c(F)cc(C(=O)O)cc21 [Example 657] | 0.24 | 5.88 | – |
| O=C(O)c1cc(F)c2nc(Cc3cc(F)c(-c4cccc(OCc5ccc(Cl)nc5)n4)cc3F)n(C[C@@H]3CCO3)c2c1 [Example 658] | 0.18 | 0.11 | – |
| N#Cc1ccc(COc2cccc(-c3cc(F)c(Cc4nc5c(F)cc(C(=O)O)cc5n4C[C@@H]4CCO4)cc3F)n2)cn1 [Example 659] | 0.21 | 0.17 | – |
| COCCn1c(Cc2cc(F)c(-c3cccc(OCc4cc(Cl)ccc4F)n3)cc2F)nc2ccc(C(=O)O)cc21 [Example 660] | 0.25 | 50.5 | – |
| COCCn1c(Cc2cc(F)c(-c3nc(OCc4ccc(C(F)F)cc4F)ccc3F)cc2F)nc2ccc(C(=O)O)cc21 [Example 661] | 0.24 | 1.95 | – |
| COCCn1c(Cc2cc(F)c(-c3cccc(OCc4ccc(Cl)cc4F)n3)cc2F)nc2c(F)cc(C(=O)O)cc21 [Example 662] | 0.22 | 0.39 | – |
| O=C(O)c1ccc2nc(Cc3cc(F)c(-c4cccc(OCc5ccc(Cl)cc5F)n4)cc3F)n(C[C@@H]3CCO3)c2c1 [Example 663] | 0.11 | 0.51 | – |
| COCCn1c(Cc2cc(F)c(-c3nc(OCc4ccc(C(F)F)cc4F)ccc3F)cc2F)nc2c(F)cc(C(=O)O)cc21 [Example 664] | 0.28 | 0.67 | – |
| O=C(O)c1ccc2nc(Cc3cc(F)c(-c4cccc(OCc5ccc(C(F)(F)F)cc5F)n4)cc3F)n(C[C@@H]3CCO3)c2c1 [Example 665] | 0.11 | 0.51 | – |
| N#Cc1ccc(COc2nc(-c3ccc(Cc4nc5c(F)cc(C(=O)O)cc5n4C[C@@H]4CCO4)cc3F)ncc2F)c(F)c1 [Example 666] | 0.20 | 0.51 | – |
| O=C(O)c1ccc2nc(Cc3ccc(-c4cccc(OCc5ccc(C(F)(F)F)cc5F)n4)cc3F)n(C[C@@H]3CCO3)c2c1 [Example 667] | 0.36 | 0.1 | – |
| N#Cc1cc(F)c(COc2cccc(-c3ccc(Cc4nc5ccc(C(=O)O)cc5n4C[C@@H]4CCO4)c(F)c3)n2)cc1F [Example 668] | 0.22 | 0.56 | – |
| O=C(O)c1cc(F)c2nc(Cc3cc(F)c(-c4cccc(OCc5ccc(C(F)F)cc5F)n4)cc3F)n(CC34CC(CO3)C4)c2c1 [Example 669] | 0.11 | 0.28 | – |
| O=C(O)c1ccc2nc(Cc3cc(F)c(-c4cccc(OCc5ccc(C(F)F)cc5F)n4)cc3F)n(CC34CC(CO3)C4)c2c1 [Example 670] | 0.19 | 0.51 | – |
| O=C(O)c1ccc2nc(Cc3cc(F)c(-c4ccnc(OCc5ccc(C(F)F)cc5F)n4)cc3F)n(CC34CC(CO3)C4)c2c1 [Example 671] | 0.11 | 1.76 | – |

| SMILES | Predicted Hepatic Clearance (Pred. Cl.) [1] [L/h/kg] | EC50 (GLP-1R; [2]) [nM] | EC50 (GLP-1R) [nM] |
| --- | --- | --- | --- |
| COCCn1c(Cc2cc(F)c(-c3ccnc(OCc4ccc(C(F)F)cc4F)n3)cc2F)nc2c(F)cc(C(=O)O)cc21 [Example 672] | 0.11 | 0.58 | – |
| COCCn1c(Cc2cc(F)c(-c3ccc(F)c(OCc4ccc(C#N)cc4F)n3)cc2C)nc2ccc(C(=O)O)cc21 [Example 673] | 0.27 | 3.54 | – |
| COCCn1c(Cc2cc(F)c(-c3cccc(OCc4ccc(C#N)cc4F)n3)cc2C)nc2ccc(C(=O)O)cc21 [Example 674] | 0.36 | 2.73 | – |
| N#Cc1ccc(COc2nc(-c3ccc(Cc4nc5c(F)cc(C(=O)O)cc5n4C[C@@H]4CCO4)cc3)ccc2F)c(F)c1 [Example 675] | 0.17 | 0.16 | – |
| N#Cc1cc(F)c(COc2nc(-c3ccc(Cc4nc5ccc(C(=O)O)cc5n4C[C@@H]4CCO4)cc3F)ccc2F)cc1F [Example 676] | 0.14 | 0.52 | – |
| N#Cc1cc(F)c(COc2nccc(-c3cc(F)c(Cc4nc5c(F)cc(C(=O)O)cc5n4C[C@@H]4CCO4)cc3F)n2)cc1F [Example 677] | 0.11 | 0.06 | – |
| CCn1cnnc1Cn1c(Cc2cc(F)c(-c3cccc(OCc4ccc(C(F)F)cc4F)n3)cc2F)nc2ccc(C(=O)O)cc21 [Example 678] | 0.25 | 0.88 | – |
| O=C(O)c1ccc2nc(Cc3c(F)cc(-c4cccc(OCc5ccc(C(F)F)cc5F)n4)cc3F)n(C[C@@H]3CCO3)c2c1 [Example 679] | 0.30 | 0.06 | – |
| N#Cc1cc(F)c(COc2cccc(-c3cc(F)c(Cc4nc5ccc(C(=O)O)cc5n4C[C@@H]4CCO4)c(F)c3)n2)cc1F [Example 680] | 0.33 | 0.11 | – |
| COCCn1c(Cc2ccc(-c3cccc(OCc4ccc(C#N)cc4F)n3)c(F)c2)nc2c(F)cc(C(=O)O)cc21 [Example 681] | 0.20 | 5.64 | – |
| N#Cc1ccc(COc2cccc(-c3cnc(Cc4nc5ccc(C(=O)O)cc5n4C[C@@H]4CCO4)c(F)c3)n2)c(F)c1 [Example 682] | 0.15 | 0.59 | – |
| N#Cc1ccc(COc2cccc(-c3cc(=O)n(Cc4nc5ccc(C(=O)O)cc5n4CC45CC(CO4)C5)cc3F)n2)c(F)c1 [Example 683] | 0.39 | 2.41 | – |
| COCCn1c(Cn2cc(F)c(-c3cccc(OCc4ccc(C#N)cc4F)n3)cc2=O)nc2c(F)cc(C(=O)O)cc21 [Example 684] | 0.18 | 0.29 | – |
| N#Cc1ccc(COc2nccc(-c3cc(F)c(Cc4nc5ccc(C(=O)NS(=O)(=O)C6CC6)cc5n4C[C@@H]4CCO4)cc3F)n2)c(F)c1 [Example 685] | 0.14 | 1.05 | – |
| Cc1cc(-c2ccc(F)c(OCc3ccc(C#N)cc3F)n2)ccc1Cc1nc2ccc(C(=O)O)cc2n1C[C@@H]1CCO1 [Example 686] | 0.24 | 0.55 | – |
| COC1(Cn2c(Cc3cc(F)c(-c4cccc(OCc5ccc(C#N)cc5F)n4)cc3F)nc3ccc(C(=O)O)cc32)CN(C(C)=O)C1 [Example 687] | 0.52 | 181 | – |
| COC1(Cn2c(Cc3cc(F)c(-c4cccc(OCc5ccc(C#N)cc5F)n4)cc3F)nc3ccc(C(=O)O)cc32)CN(S(C)(=O)=O)C1 [Example 688] | 0.62 | 1220 | – |
| CC(=O)N1C[C@@H](F)C[C@@H]1Cn1c(Cc2cc(F)c(-c3cccc(OCc4ccc(C#N)cc4F)n3)cc2F)nc2ccc(C(=O)O)cc21 [Example 690] | 0.36 | – | 3.98 |
| CC(=O)N1C[C@H](F)C[C@@H]1Cn1c(Cc2cc(F)c(-c3cccc(OCc4ccc(C#N)cc4F)n3)cc2F)nc2ccc(C(=O)O)cc21 [Example 691] | 0.25 | – | 0.06 |
| COCCn1c(Cc2cc(F)c(-c3cccc(OCc4csc(Cl)c4)n3)cc2F)nc2ccc(C(=O)O)cc21 [Example 692] | 0.11 | 12.3 | – |
| COCCn1c(Cc2ccc(-c3cccc(OCc4ccc(Cl)cn4)n3)cc2F)nc2ccc(C(=O)O)cc21 [Example 693] | 0.58 | 15.9 | – |
